According to US11155879B2, “Method of predicting effects of CDC7 inhibitor” (TAKEDA PHARMACEUTICAL COMPANY LIMITED, priority 2017, dated 2021):

Test system: pancreatic patient-derived tumor xenografts (PDX models)
Experiment: In vivo antitumor activity in female BALB/c nude mice bearing patient-derived tumor xenografts (PDXs)
Details: 60 mg/kg, Bid, po, 21 days, 3 days on 4 days off
From the text: In Vivo Antitumor Activity of Compound 1 Hemihydrate in Female BALB/c Nude Mice Bearing Patient-Derived Tumor Xenografts (PDXs)
Tumor fragments from seed mice inoculated with selected PDX tumors were harvested and used for inoculation into BALB/c nude mice. Each mouse was inoculated subcutaneously at the right flank with one tumor fragment (2-3 mm in diameter). The treatments were started when mean tumor size reached approximately 200-250 mm^3. For each model, 6 tumor bearing mice were randomized into 2 groups. Mice were dosed orally with either vehicle (0.5% w:v methyl cellulose) or Compound 1 hemihydrate Form A crystal (60 mg/kg, Bid, po, 21 days, 3 days on 4 days off).
The % tumor growth inhibition (TGI) was taken as endpoints to determine when the tumor growth can be delayed or mice can be cured. Tumor sizes were measured twice weekly in two dimensions using a caliper, and the volume is expressed in mm^3 using the formula: V=0.5a×b^2,
where a and b are the long and short diameters of the tumor, respectively. The % TGI was calculated using the following formula: % TGI=(1−(Ti-T0)/(Vi-V0))*100 […]

With `Cc1n[nH]cc1-c1cc2nc([C@@H]3CC4CCN3CC4)[nH]c(=O)c2s1` [Compound 1 hemihydrate, 2-[(2S)-1-azabicyclo[2.2.2]oct-2-yl]-6-(3-methyl-1H-pyrazol-4-yl)thieno[3,2-d]pyrimidin-4(3H)-one] the “tumor growth inhibition (% TGI)” value (22 out of 25 pancreatic PDX models, vs vehicle (0.5% methyl cellulose)) was > 60% and the “sensitivity of KRAS-mutant pancreatic tumors compared to KRAS-wild type ones (correlative study on % TGI, FIG. 1)” value (pancreatic PDX models, Student's t-test KRAS-mutant vs KRAS-wild) was “more sensitive”.
